In US10717964B2, “Synthetic methylotrophy to liquid fuels and chemicals” (University of Delaware, priority 2014, dated 2020):

Tests used:
[1] = test system: formate dehydrogenase (FDH, fdh) from Clostridium carboxidivorans P7T; conditions: read-out: Km (for NADH); cited from earlier work
[2] = test system: E. coli pACM4_pFRM_GFP+pETM6-BstMDH; assay type: cell-based; conditions: 2000 and 4000 mM methanol, MOPS+0.1% glucose
Text: Overnight LB cultures were transferred to MOPS+0.1% glucose for the experiment.

E. coli pACM4_pFRM_GFP = assay type: cell-based; conditions: 500 and 1000 μM HCHO, MOPS+0.1% glucose
Text: (§1) GFP expression correlated with HCHO concentration over time. Overnight LB cultures were transferred to MOPS+0.1% glucose for the experiment.

E. coli pETM6_Pfrm_GFP = assay type: cell-based; conditions: 2 and 4 mM HCHO, MOPS+0.1% glucose
Text: as §1

[3] = test system: E. coli Rosetta empty vector control (pET21_Empty); experiment: Growth of empty vector control E. coli in media spiked with formaldehyde; assay type: cell-based; conditions: LB plus formaldehyde (2 mM) or mixture of M9 and LB plus formaldehyde (1.5 mM)
Method: FIGS. 42A-B show growth of E. coli expressing HPS and PHI genes from M. gastri. The ability of E. coli to grow in A) LB or B) mixed M9:LB (3:1) spiked with formaldehyde was assessed. Log phase cultures of E. coli harboring pET_M.g.PHI_HPS (circles) or pET21_Empty (squares) were induced with 0.5 mM IPTG for 3 h before being diluted into test media containing 2 mM formaldehyde (LB) or 1.5 mM formaldehyde (M9:LB). Aliquots were taken from the cultures at the indicated time points to determine the optical density (OD600). Arrows indicate times in which the cultures were spiked with (A) 2 mM or (B) 1.5 mM formaldehyde.
Primers were designed to amplify the Mycobacterium gastri phi-hps operon, which encodes the genes necessary to fix formaldehyde to ribulose-5-phosphate yielding hexulose-6-phosphate, and then convert […] to fructose-6-phosphate. Genes were amplified and initially cloned into the expression vector pET21a (Novagen). This vector utilizes the T7 promoter, and was transformed into the Rosetta strain of E. coli. E. coli Rosetta expressing the M. gastri PHI-HPS operon was compared with an empty vector control for growth in LB with 2 mM formaldehyde (FIG. 42A-B). […] When the same strains were tested in M9 minimal media containing only formaldehyde (0.25 mM) as the sole carbon source, no increase in OD600 was observed (FIG. 43).

[4] = substrate: CO; experiment: cells, lysate or membranes named; conditions: other: crude cell extracts of E. coli, in vitro

NC(=O)C1=CN([C@@H]2O[C@H](COP(=O)(O)OP(=O)(O)OC[C@H]3O[C@@H](n4cnc5c(N)ncnc54)[C@H](O)[C@@H]3O)[C@@H](O)[C@H]2O)C=CC1 [NADH]
Km [1]: 50 µM

CO [methanol]
growth [2]: Retarded growth

C=O [formaldehyde]
growth (E. coli pACM4_pFRM_GFP): Retarded growth
growth (E. coli pETM6_Pfrm_GFP): No growth was observed
growth [3]: unable to grow

B1: methanol dehydrogenase MDH1 (MDH) from Bacillus stearothermophilus (Geobacillus stearothermophilus) (protein)
chain: MKAAVVNEFKKALEIKEVERPKLEEGEVLVKIEACGVCHTDLHAAHGDWPIKPKLPLIPGHEGVGIVVEVAKGVKSIKVGDRVGIPWLYSACGECEYCLTGQETLCPHQLNGGYSVDGGYAEYCKAPADYVAKIPDNLDPVEVAPILCAGVTTYKALKVSGARPGEWVAIYGIGGLGHIALQYAKAMGLNVVAVDISDEKSKLAKDLGADIAINGLKEDPVKAIHDQVGGVHAAISVAVNKKAFEQAYQSVKRGGTLVVVGLPNADLPIPIFDTVLNGVSVKGSIVGTRKDMQEALDFAARGKVRPIVETAELEEINEVFERMEKGKINGRIVLKLKED
Km [4]: 27000 µM
